What all share (type): functional
Assay [1] has as its system Escherichia coli. Put plainly: Antibacterial activity against Escherichia coli MTCC739 assessed as inhibition of bacterial growth by standard broth microdilution method.
Assay [2] deals with Klebsiella pneumoniae. Put plainly: Antibacterial activity against Klebsiella pneumoniae assessed as inhibition of bacterial growth by standard broth microdilution method.
Assay [3] deals with Pseudomonas aeruginosa. Put plainly: Antibiofilm activity against Pseudomonas aeruginosa assessed as inhibition of biofilm formation.
Assay [4] deals with Staphylococcus aureus. Put plainly: Antibiofilm activity against Staphylococcus aureus MTCC96 assessed as inhibition of biofilm formation.
In assay [5] the test system is Bacillus subtilis. Put plainly: Antibacterial activity against Bacillus subtilis MTCC121 assessed as inhibition of bacterial growth by standard broth microdilution method.
For assay [6], the system named is Bacillus subtilis. Nature of the assay: Antibiofilm activity against Bacillus subtilis MTCC121 assessed as inhibition of biofilm formation.
The test system of assay [7] is Staphylococcus epidermidis. Nature of the assay: Antibacterial activity against Staphylococcus epidermidis MTCC435 assessed as inhibition of bacterial growth by standard broth microdilution method.
The subject of assay [8] is Staphylococcus aureus. Nature of the assay: Antibacterial activity against Staphylococcus aureus MTCC96 assessed as inhibition of bacterial growth by standard broth microdilution method.
In assay [9] the test system is Staphylococcus epidermidis. Nature of the assay: Antibiofilm activity against Staphylococcus epidermidis MTCC435 assessed as inhibition of biofilm formation.
For assay [10], the system named is Pseudomonas aeruginosa. Put plainly: Antibacterial activity against Pseudomonas aeruginosa assessed as inhibition of bacterial growth by standard broth microdilution method.
Assay [11] concerns Escherichia coli. Put plainly: Antibiofilm activity against Escherichia coli MTCC739 assessed as inhibition of biofilm formation.
Assay [12] relates to Bacillus subtilis. Nature of the assay: Potency index, ratio of ciprofloxacin MIC to test compound MIC for antibacterial activity against Bacillus subtilis MTCC121.
Assay [13] has as its system Staphylococcus epidermidis. Put plainly: Potency index, ratio of ciprofloxacin MIC to test compound MIC for antibacterial activity against Staphylococcus epidermidis MTCC435.

Converted amounts (≈) assume the structure as drawn.

Turning to `Clc1ccccc1-c1nnn2c1-c1ccccc1SC2`, the MIC in [1] was greater than 50 µg/mL; in assay [2], greater than 50 µg/mL; in [5] it was 12.5 µg/mL (≈ 41.7 µM); in assay [7], 25 µg/mL (≈ 83.4 µM); in assay [8], 6.25 µg/mL (≈ 20.8 µM); in [10] it was 50 µg/mL (≈ 167 µM). For the same compound, the BIC in assay [3] worked out at 48 µg/mL; in assay [4], 10.7 µg/mL; in assay [6], 26.1 µg/mL; in [9], 21.2 µg/mL.

Take `COc1ccc(-c2nnn3c2-c2ccccc2SC3)cc1`: the MIC was greater than 50 µg/mL in assay [1]; greater than 50 µg/mL in assay [2]; 50 µg/mL (≈ 169 µM) in assay [5]; greater than 50 µg/mL in [7]; greater than 50 µg/mL in assay [8]; greater than 50 µg/mL in assay [10].

For `Cc1cccc(-c2nnn3c2-c2ccccc2S(=O)(=O)C3)c1`, the minimum inhibitory concentration (MIC) in assay [1] is greater than 50 µg/mL; in assay [2], greater than 50 µg/mL; in [5], 50 µg/mL (≈ 161 µM); in assay [7] it was 50 µg/mL (≈ 161 µM); in assay [8], greater than 50 µg/mL; in [10], greater than 50 µg/mL.

In the case of `COc1cccc(-c2nnn3c2-c2ccccc2S(=O)(=O)C3)c1`, the MIC in assay [1] amounted to 50 µg/mL (≈ 153 µM); in assay [2] it was 25 µg/mL (≈ 76.4 µM); in assay [5] it was 6.25 µg/mL (≈ 19.1 µM); in [7] it was 12.5 µg/mL (≈ 38.2 µM); in assay [8], 6.25 µg/mL (≈ 19.1 µM); in assay [10], 50 µg/mL (≈ 153 µM). The BIC in [3] was determined as 47.3 µg/mL; in [4], 4.2 µg/mL; in assay [6], 3.5 µg/mL; in assay [11] it was 52.3 µg/mL; in assay [9] it was 24.8 µg/mL.

On to `COc1cccc(-c2nnn3c2-c2ccccc2SC3)c1`, for which the minimal inhibitory concentration (MIC) is 50 µg/mL (≈ 169 µM) in [1]; greater than 50 µg/mL in assay [2]; 25 µg/mL (≈ 84.6 µM) in assay [5]; 50 µg/mL (≈ 169 µM) in assay [7]; 25 µg/mL (≈ 84.6 µM) in assay [8]; greater than 50 µg/mL in [10].

Turning to `O=S1(=O)Cn2nnc(-c3ccccc3)c2-c2ccccc21`, the minimum inhibitory concentration (MIC) in assay [1] was greater than 50 µg/mL; in assay [2], greater than 50 µg/mL; in assay [5], 50 µg/mL (≈ 168 µM); in assay [7] it was 25 µg/mL (≈ 84.1 µM); in assay [8], 25 µg/mL (≈ 84.1 µM); in assay [10] it was greater than 50 µg/mL.

Take `O=S1(=O)Cn2nnc(-c3ccc(Br)cc3)c2-c2ccccc21`: the MIC worked out at 6.25 µg/mL (≈ 16.6 µM) in assay [1]; 50 µg/mL (≈ 133 µM) in assay [2]; 12.5 µg/mL (≈ 33.2 µM) in assay [5]; 50 µg/mL (≈ 133 µM) in assay [7]; 25 µg/mL (≈ 66.4 µM) in assay [8]; 25 µg/mL (≈ 66.4 µM) in assay [10]. In addition, the BIC in [3] is 20.4 µg/mL; in assay [4], 28.1 µg/mL; in assay [6], 23.9 µg/mL; in assay [11], 10.9 µg/mL; in assay [9] it was 57.6 µg/mL.

`Cc1cccc(-c2nnn3c2-c2ccccc2SC3)c1`: the MIC in assay [1], in assay [2], in [5], in assay [7], in assay [8] and in assay [10] was greater than 50 µg/mL in each case.

As for `O=S1(=O)Cn2nnc(-c3ccccc3Cl)c2-c2ccccc21`, the Ratio in assay [12] and in assay [13] was 2 in each case. In addition, the MIC is 50 µg/mL (≈ 151 µM) in assay [1]; 50 µg/mL (≈ 151 µM) in assay [2]; 3.12 µg/mL (≈ 9.4 µM) in [5]; 3.12 µg/mL (≈ 9.4 µM) in assay [7]; 6.25 µg/mL (≈ 18.8 µM) in [8]; 25 µg/mL (≈ 75.4 µM) in assay [10]. The BIC in assay [3] came out at 22.8 µg/mL; in [4], 5.88 µg/mL; in assay [6], 4.15 µg/mL; in assay [11], 48 µg/mL; in [9], 2.94 µg/mL.

Regarding `Cc1ccc(-c2nnn3c2-c2ccccc2S(=O)(=O)C3)cc1`, the MIC came out at 25 µg/mL (≈ 80.3 µM) in [1]; 50 µg/mL (≈ 161 µM) in assay [2]; 25 µg/mL (≈ 80.3 µM) in [5]; 25 µg/mL (≈ 80.3 µM) in assay [7]; 50 µg/mL (≈ 161 µM) in assay [8]; 50 µg/mL (≈ 161 µM) in assay [10].

On to `Brc1ccc(-c2nnn3c2-c2ccccc2SC3)cc1`, for which the minimal inhibitory concentration (MIC) in assay [1] is 25 µg/mL (≈ 72.6 µM); in assay [2], 50 µg/mL (≈ 145 µM); in assay [5] it was greater than 50 µg/mL; in assay [7], greater than 50 µg/mL; in [8], 50 µg/mL (≈ 145 µM); in assay [10] it was greater than 50 µg/mL.

For the compound `COc1ccc(-c2nnn3c2-c2ccccc2S(=O)(=O)C3)cc1`, the MIC was greater than 50 µg/mL in assay [1]; greater than 50 µg/mL in [2]; 25 µg/mL (≈ 76.4 µM) in assay [5]; 25 µg/mL (≈ 76.4 µM) in assay [7]; 50 µg/mL (≈ 153 µM) in [8]; greater than 50 µg/mL in assay [10].

Turning to `Cc1ccc(-c2nnn3c2-c2ccccc2SC3)cc1`, the minimum inhibitory concentration (MIC) in assay [1] was greater than 50 µg/mL; in assay [2] it was 50 µg/mL (≈ 179 µM); in [5], 50 µg/mL (≈ 179 µM); in assay [7], 50 µg/mL (≈ 179 µM); in [8], greater than 50 µg/mL; in [10] it was 50 µg/mL (≈ 179 µM).

Turning to `O=C(O)c1cn(C2CC2)c2cc(N3CCNCC3)c(F)cc2c1=O` [CIPROFLOXACIN], the minimum inhibitory concentration (MIC) in assay [2] was found to be 3.12 µg/mL (≈ 9.42 µM); in [5], 6.25 µg/mL (≈ 18.9 µM); in assay [7], 6.25 µg/mL (≈ 18.9 µM); in assay [8], 3.12 µg/mL (≈ 9.42 µM); in assay [10], 1.56 µg/mL (≈ 4.71 µM). In addition, the BIC in assay [3] amounted to 2.75 µg/mL; in [4], 4.88 µg/mL; in assay [6] it was 5.5 µg/mL; in assay [11], 4.29 µg/mL; in [9], 2.24 µg/mL.

These data come from ChEMBL document CHEMBL4811306, “Fused benzo[1,3]thiazine-1,2,3-triazole hybrids: Microwave-assisted one-pot synthesis, in vitro antibacterial, antibiofilm, and in silico ADME studies” (2021).
